Data set [1] deals with Nucleotide-binding oligomerization domain-containing protein 2 (Homo sapiens, UniProt Q9HC29). Nature of the data set: Inhibition of human NOD2 expressed in HEK-Blue hNOD2 cells coexpressing NF-kappaB-inducible SEAP reporter gene assessed as inhibition of NF-kappaB transcriptional activity by measuring decrease in SEAP activity preincubated for 30 mins followed by C12-iE-DAP addition and measured after 18 hrs by absorbance based spectrophotometric analysis. In kind it is cell-based. (A reporter such as luciferase makes a cellular process visible.)
Chain of Nucleotide-binding oligomerization domain-containing protein 2 (Q9HC29 whole entry, the tested form may be a part): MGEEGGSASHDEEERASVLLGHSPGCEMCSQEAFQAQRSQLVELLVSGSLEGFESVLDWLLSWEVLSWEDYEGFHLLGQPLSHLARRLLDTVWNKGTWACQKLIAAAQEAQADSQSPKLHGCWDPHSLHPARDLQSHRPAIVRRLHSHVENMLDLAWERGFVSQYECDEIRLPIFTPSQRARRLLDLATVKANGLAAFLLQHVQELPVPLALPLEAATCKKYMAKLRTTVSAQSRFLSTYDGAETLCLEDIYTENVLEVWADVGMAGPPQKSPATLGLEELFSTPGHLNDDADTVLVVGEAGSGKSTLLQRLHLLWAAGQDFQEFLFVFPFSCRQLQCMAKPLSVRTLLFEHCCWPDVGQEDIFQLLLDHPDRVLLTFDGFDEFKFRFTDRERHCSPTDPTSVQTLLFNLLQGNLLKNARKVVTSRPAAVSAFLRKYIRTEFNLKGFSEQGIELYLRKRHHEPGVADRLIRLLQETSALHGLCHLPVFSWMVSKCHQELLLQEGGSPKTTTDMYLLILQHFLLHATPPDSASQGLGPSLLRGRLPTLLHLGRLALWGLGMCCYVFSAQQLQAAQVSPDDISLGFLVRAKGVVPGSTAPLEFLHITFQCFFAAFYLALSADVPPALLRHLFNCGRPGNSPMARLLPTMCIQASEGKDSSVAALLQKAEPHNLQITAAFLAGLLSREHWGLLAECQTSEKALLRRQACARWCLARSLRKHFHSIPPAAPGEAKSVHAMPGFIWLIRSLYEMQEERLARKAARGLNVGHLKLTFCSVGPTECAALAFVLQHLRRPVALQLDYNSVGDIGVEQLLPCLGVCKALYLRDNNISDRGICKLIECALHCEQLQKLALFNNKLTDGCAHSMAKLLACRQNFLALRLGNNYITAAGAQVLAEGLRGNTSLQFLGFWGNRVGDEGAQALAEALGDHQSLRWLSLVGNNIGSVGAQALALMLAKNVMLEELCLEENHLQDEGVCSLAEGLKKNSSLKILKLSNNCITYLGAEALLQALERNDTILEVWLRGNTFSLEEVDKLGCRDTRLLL

The test system of another data set is Huh-7. Nature of the data set: Cytotoxicity against human Huh-7 cells assessed as reduction in cell viability at 1 uM measured after 72 hrs by celltiter 96 aqueous one solution cell proliferation assay. The data set is classed as toxicity, cell-based. As to conditions: huh-7, 72 h.
Data set [2] can be described thus: Cytotoxicity against human THP1-Blue NF-kappaB cells assessed as reduction in cell viability at 1 uM measured after 72 hrs by celltiter 96 aqueous one solution cell proliferation assay. In kind it is toxicity, cell-based.
For data set [3], the target named is T1, Nucleotide-binding oligomerization domain-containing protein 1 (Homo sapiens, UniProt Q9Y239).
T1 sequence (Q9Y239 whole entry): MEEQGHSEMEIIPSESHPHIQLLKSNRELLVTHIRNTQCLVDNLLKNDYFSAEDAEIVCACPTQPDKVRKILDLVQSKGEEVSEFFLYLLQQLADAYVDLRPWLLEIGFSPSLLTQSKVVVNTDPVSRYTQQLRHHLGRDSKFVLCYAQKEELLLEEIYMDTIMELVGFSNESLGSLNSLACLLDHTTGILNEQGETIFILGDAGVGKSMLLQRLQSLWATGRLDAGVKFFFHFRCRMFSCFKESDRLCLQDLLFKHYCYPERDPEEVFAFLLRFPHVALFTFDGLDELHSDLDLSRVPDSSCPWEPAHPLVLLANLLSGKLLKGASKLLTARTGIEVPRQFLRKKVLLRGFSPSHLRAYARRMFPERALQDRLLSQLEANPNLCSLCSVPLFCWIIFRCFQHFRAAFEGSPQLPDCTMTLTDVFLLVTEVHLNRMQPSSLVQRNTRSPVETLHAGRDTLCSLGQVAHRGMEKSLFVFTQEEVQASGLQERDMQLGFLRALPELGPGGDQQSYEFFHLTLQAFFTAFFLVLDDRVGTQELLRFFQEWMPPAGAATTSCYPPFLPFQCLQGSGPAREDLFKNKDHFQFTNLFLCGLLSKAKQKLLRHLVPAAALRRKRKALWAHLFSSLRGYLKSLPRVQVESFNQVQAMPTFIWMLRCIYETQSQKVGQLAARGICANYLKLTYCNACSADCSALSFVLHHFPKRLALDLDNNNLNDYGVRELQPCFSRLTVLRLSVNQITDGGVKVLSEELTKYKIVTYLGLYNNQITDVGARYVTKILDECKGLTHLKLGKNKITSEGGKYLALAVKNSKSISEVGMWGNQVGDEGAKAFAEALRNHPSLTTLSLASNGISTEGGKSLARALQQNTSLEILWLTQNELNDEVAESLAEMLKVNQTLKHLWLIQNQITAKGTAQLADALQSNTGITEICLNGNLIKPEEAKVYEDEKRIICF
Kind of data set: Inhibition of human NOD1 expressed in HEK-Blue hNOD1 cells coexpressing NF-kappaB-inducible SEAP reporter gene assessed as inhibition of NF-kappaB transcriptional activity by measuring decrease in SEAP activity preincubated for 30 mins followed by C12-iE-DAP addition and measured after 18 hrs by absorbance based spectrophotometric analysis. The data set is classed as cell-based.

Data set [4] in a line: Cytotoxicity against HEK-Blue hNOD1 cells assessed as reduction in cell viability at 1 uM measured after 72 hrs by celltiter 96 aqueous one solution cell proliferation assay. In kind it is toxicity, cell-based. The note with it: human, hek-blue hnod1, 72 h.
Data set [5] addresses Epidermal growth factor receptor (Homo sapiens, UniProt P00533). Nature of the data set: Inhibition of recombinant EGFR (unknown origin) using PGT as substrate preincubated for 10 mins followed by substrate addition and measured after 1 hr in presence of ATP by ADP-Glo luminescence assay. In general terms: ADP-Glo first removes unused ATP, then detects ADP through luciferase.

Data set [6] is described as follows: Inhibition of recombinant VEGFR (unknown origin) using PGT as substrate preincubated for 10 mins followed by substrate addition and measured after 1 hr by ADP-Glo luminescence assay. Also noted: species or system Homo sapiens.
Data set [7] can be described thus: Metabolic stability in liver microsomes (unknown origin) assessed as half life. In kind it is ADME, Microsome. (In general: Liver microsomes are vesicles of endoplasmic reticulum, rich in cytochrome P450 enzymes.)
Data set [8] is described as follows: Stability in plasma (unknown origin) assessed as half life. The data set is classed as ADME, cell-free.
The nature of data set [9]: Lipophilicity, logD of compound at pH 7.4. In kind it is physicochemical. As to conditions: buffer.
Data set [10] can be described thus: Solubility of the compound in PBS buffer at pH 7.4. In kind it is physicochemical.
Data set [11] in a line: Metabolic stability in liver microsomes (unknown origin) assessed as intrinsic clearance. In kind it is ADME, Microsome. As to conditions: read-out: CLH.
The target in data set [12] is Receptor-interacting serine/threonine-protein kinase 2 (Homo sapiens, UniProt O43353). Nature of the data set: Inhibition of human recombinant RIPK2 (1 to 317 residues) expressed in Sf21 insect cells using MBP as substrate preincubated for 10 mins followed by substrate addition and measured after 1 hr by ADP-Glo luminescence assay.
Chain of Receptor-interacting serine/threonine-protein kinase 2 (O43353 whole entry, the tested form may be a part): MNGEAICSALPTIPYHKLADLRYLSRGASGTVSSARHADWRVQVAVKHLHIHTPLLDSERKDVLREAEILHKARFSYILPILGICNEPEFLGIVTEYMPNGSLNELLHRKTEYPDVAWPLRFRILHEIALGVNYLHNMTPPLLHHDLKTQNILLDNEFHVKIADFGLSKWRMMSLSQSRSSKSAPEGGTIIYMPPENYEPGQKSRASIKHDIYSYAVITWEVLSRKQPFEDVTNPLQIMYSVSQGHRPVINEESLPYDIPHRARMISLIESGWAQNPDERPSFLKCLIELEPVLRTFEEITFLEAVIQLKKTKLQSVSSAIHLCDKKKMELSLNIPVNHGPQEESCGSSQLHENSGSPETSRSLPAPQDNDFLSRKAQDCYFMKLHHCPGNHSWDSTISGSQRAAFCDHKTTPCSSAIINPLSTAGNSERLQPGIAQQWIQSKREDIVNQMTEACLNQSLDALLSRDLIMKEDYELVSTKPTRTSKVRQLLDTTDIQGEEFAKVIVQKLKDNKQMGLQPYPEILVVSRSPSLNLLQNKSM
The next data set relates to HEK-Blue hNOD1. Kind of data set: Anti-inflammatory activity in HEK-Blue hNOD1 cells assessed as reduction in C12-iE-DAP stimulated IL-8 secretion at 0.01 to 1 uM preincubated for 1 hr followed by C12-iE-DAP addition and measured after 22 hrs by fluorescence based analysis. In kind it is functional, cell-based. As to conditions: Homo sapiens, dose 0.01-1 µM, time 23.0 hrs.

Converted amounts (≈) assume the structure as drawn. The source made the active and inactive calls. The calls are words filed in the database; no cut-off is given here.

Chain of Epidermal growth factor receptor (P00533 whole entry): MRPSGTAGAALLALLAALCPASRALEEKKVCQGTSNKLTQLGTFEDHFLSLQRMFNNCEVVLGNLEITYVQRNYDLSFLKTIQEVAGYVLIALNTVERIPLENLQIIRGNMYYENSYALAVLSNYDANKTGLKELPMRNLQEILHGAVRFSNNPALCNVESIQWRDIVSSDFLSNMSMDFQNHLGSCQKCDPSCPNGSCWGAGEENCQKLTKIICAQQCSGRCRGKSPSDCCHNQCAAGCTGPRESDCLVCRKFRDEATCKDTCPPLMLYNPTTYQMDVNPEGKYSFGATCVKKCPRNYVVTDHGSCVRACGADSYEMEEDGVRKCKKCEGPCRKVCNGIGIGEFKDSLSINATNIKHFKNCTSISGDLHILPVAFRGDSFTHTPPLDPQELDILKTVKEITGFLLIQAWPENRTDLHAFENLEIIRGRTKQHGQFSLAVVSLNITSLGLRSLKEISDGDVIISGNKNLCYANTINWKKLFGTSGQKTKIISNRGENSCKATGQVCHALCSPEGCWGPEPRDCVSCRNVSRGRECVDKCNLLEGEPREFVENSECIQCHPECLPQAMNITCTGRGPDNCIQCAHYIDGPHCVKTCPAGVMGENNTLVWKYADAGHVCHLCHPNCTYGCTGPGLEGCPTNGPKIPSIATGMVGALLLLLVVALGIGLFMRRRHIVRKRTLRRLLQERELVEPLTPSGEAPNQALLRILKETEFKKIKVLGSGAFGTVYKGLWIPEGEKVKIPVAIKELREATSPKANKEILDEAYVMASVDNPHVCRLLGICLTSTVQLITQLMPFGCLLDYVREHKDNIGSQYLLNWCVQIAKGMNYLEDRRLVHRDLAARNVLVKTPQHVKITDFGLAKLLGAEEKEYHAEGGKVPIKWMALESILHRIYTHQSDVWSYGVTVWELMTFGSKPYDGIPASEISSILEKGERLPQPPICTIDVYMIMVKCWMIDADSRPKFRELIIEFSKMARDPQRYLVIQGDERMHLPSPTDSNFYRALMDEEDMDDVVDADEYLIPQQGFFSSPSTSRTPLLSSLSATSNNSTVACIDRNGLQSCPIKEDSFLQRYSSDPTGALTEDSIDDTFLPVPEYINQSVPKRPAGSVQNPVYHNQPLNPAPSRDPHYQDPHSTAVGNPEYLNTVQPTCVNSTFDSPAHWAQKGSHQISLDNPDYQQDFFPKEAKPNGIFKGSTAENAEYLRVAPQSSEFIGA

In the case of `COc1cc2ncnc(Nc3ccc(Br)c(O)c3)c2cc1OC`, the IC50 (commonly the concentration that inhibits the measured activity by half) in data set [1] is > 10 µM.

As to `COc1cc2ncnc(Nc3ccc(F)c(Cl)c3)c2cc1OCCCN1CCOCC1` [GEFITINIB], the Activity result (in the data set on Huh-7; in [2]; in data set [4]) was “Non-toxic” in each case. Moreover, the 50% inhibitory concentration (IC50) in data set [3] is 0.605 µM; in data set [1], 1.08 µM.

`COCCOc1cc2ncnc(Nc3cc(OC)c(Cl)cc3Cl)c2cc1OCCOC`: the IC50 in data set [1] was > 10 µM.

On to `COc1cc2ncnc(Nc3ccc(F)c(O)c3)c2cc1OC`, for which the Activity result (in the data set with Huh-7; in data set [2]; in data set [4]) was “Non-toxic” each time. Further, the IC50 in data set [1] is > 10 µM; in data set [5] it was 0.00255 µM; in [6], 0.00302 µM.

As to `COc1cc2ncnc(Nc3ccc(Cl)c(Cl)c3)c2cc1OC`, the IC50 in [1] was > 10 µM.

Take `COc1cc(Nc2ncnc3cc(OC)c(OC)cc23)ccc1Cl`: the IC50 in data set [1] was > 10 µM.

Take `COc1cc2ncnc(Nc3ccc(F)c(Cl)c3)c2cc1OC`: the figures for the concentration for half-maximal inhibition (IC50) in data set [3] and in [1] were 1.34 µM and > 10 µM, respectively.

For `COc1ccc(Cl)c(Nc2ncnc3cc(OC)c(OC)cc23)c1`, the concentration for half-maximal inhibition (IC50) was 0.686 µM in data set [3] and > 10 µM in data set [1].

Regarding `COc1cc2ncnc(Nc3ccc4scnc4c3)c2cc1OC.Cl`, the Activity entry (in the data set with Huh-7; in data set [2]; in [4]) was “Non-toxic” each time. Further, the IC50 in [1] is > 10 µM; in data set [5], 0.036 µM.

As for `COc1cc2ncnc(Nc3cc(O)c(Cl)cc3Cl)c2cc1OC`, the IC50 in data set [3] and in data set [1] was > 10 µM throughout.

Consider `COc1cc2ncnc(Nc3n[nH]c4ccc(F)cc34)c2cc1OC`, for which, in [1], the IC50 is > 10 µM.

Turning to `COc1cc2ncnc(Nc3cccc(Cl)c3)c2cc1OC`, the IC50 in data set [3] and in data set [1] was > 10 µM in each case.

In the case of `COc1cc2ncnc(Nc3ccc(Br)cc3F)c2cc1OC`, the figures for the IC50 in data set [3] and in data set [1] were 0.549 µM and > 10 µM, respectively.

Consider `COc1cc(Nc2ncnc3cc(OC)c(OC)cc23)c(Cl)cc1Cl`, for which the Activity result (in the data set with Huh-7; in data set [2]; in data set [4]) was “Non-toxic” each time. For the same molecule, the results for the 50% inhibitory concentration (IC50) in data set [1] and in data set [5] were > 10 µM and 0.0613 µM, respectively.

Turning to `CCN(CC)CCOc1cc2ncnc(Nc3cc(OC)c(Cl)cc3Cl)c2cc1OC`, the half-life (usually the time in which the quantity being followed falls by half) is > 0.667 h in data set [7] and > 6 h in [8]. In addition, the logD (commonly lipophilicity at a set pH, counting ionised and neutral species) in data set [9] was 0.88. The Activity entry (in the data set on Huh-7; in [2]; in data set [4]) was “Non-toxic” in each case. Further, the IC50 in [3] was 0.042 µM; in data set [1], > 10 µM; in data set [5], > 1 µM; in [6] it was > 1 µM. Also, in [10], the solubility – broadly, the concentration that dissolves in the medium under given conditions – amounted to 31 µM (≈ 14.4 µg/mL). Moreover, the microsomal CLint in data set [11] came out at 29 µL/min/mg.

Consider `COc1cc2ncnc(Nc3cc(N)ccn3)c2cc1OC`, for which, in data set [1], the IC50 is > 10 µM.

Consider `COc1cc(Nc2ncnc3cc(OC)c(OC)cc23)c(F)cc1Br`, for which the IC50 in data set [1] was > 10 µM.

As to `COc1cc(Nc2ncnc3c(OC)c(OC)c(OC)cc23)c(Cl)cc1Cl`, the IC50 in data set [1] is > 10 µM.

Consider `COc1cc2ncnc(Nc3ccccc3)c2cc1OC`, for which the IC50 in data set [3] and in [1] was > 10 µM each time.

Turning to `COc1cc2ncnc(Nc3ccc(Cl)c(N)c3)c2cc1OC`, the Activity entry (with Huh-7; in data set [2]; in [4]) was “Non-toxic” each time. For the same molecule, the results for the IC50 in [1] and in [5] were > 10 µM and 0.00046 µM, respectively.

Turning to `CCN(CC)CCOc1ccc2c(Nc3cc(OC)c(Cl)cc3Cl)ncnc2c1`, the IC50 in data set [1] was > 10 µM.

Turning to `COc1cc2ncnc(Nc3ccccc3Cl)c2cc1OC`, the concentration for half-maximal inhibition (IC50) in [1] is > 10 µM.

With `CCCS(=O)(=O)Nc1cc(-c2cc(-c3ccc(N4CCNCC4)cc3)cnc2N)cc(F)c1OC`, the half-maximal inhibitory concentration (IC50) in [12] worked out at 0.00193 µM; in [1] it was 0.219 µM.

Consider `COc1cc2ncnc(Nc3ccc(Cl)c(O)c3)c2cc1OC.Cl`, for which the Activity entry (with Huh-7; in [2]; in data set [4]) was “Non-toxic” each time. Also, the 50% inhibitory concentration (IC50) is 0.033 µM in [3], > 10 µM in [1], 0.00084 µM in data set [5] and 0.00139 µM in [6].

As to `Cc1ccc(S(=O)(=O)n2c(N)nc3ccccc32)cc1`, the half-inhibitory concentration (IC50) is > 1 µM in data set [12] and > 10 µM in data set [1]. Moreover, the result with HEK-Blue hNOD1 was inactive.

On to `COc1cc2ncnc(Nc3ccncc3)c2cc1OC`, for which the half-maximal inhibitory concentration (IC50) in data set [1] is > 10 µM.

On to `COc1cc2ncnc(Nc3cc(Br)ccc3Br)c2cc1OC`, for which the IC50 in data set [1] is > 10 µM.

Turning to `COc1cc2ncnc(Nc3cccc(N)c3)c2cc1OC`, the IC50 in [3] and in [1] was > 10 µM each time.

For `COc1cc2ncnc(Nc3n[nH]c(C)c3C)c2cc1OC`, the half-maximal inhibitory concentration (IC50) in data set [3] and in [1] was > 10 µM in each case.

`COc1cc2ncnc(Nc3ccc(Cl)cc3)c2cc1OC`: the IC50 in [3] is 0.283 µM; in [1] it was > 10 µM.

As to `COc1cc2ncnc(Nc3cccc(O)c3)c2cc1OC`, the IC50 was 0.157 µM in data set [3] and > 10 µM in data set [1].

In the case of `COc1cc2ncnc(Nc3ccc(Cl)cc3Cl)c2cc1OC`, the IC50 in data set [3] and in data set [1] was > 10 µM throughout.

With `COc1cc2ncnc(-n3nc(N)c4cc(F)ccc43)c2cc1OC`, the IC50 in data set [1] was > 10 µM.

`CCN(CC)CCOc1cc2c(Nc3cc(OC)c(Cl)cc3Cl)ncnc2cc1OC`: the IC50 in data set [1] is > 10 µM.

The values above are taken from ChEMBL document CHEMBL6092202, “4-Anilinoquinazoline Derivatives as the First Potent NOD1-RIPK2 Signaling Pathway Inhibitors at the Nanomolar Range” (J Med Chem, 2024).
